Marks after values point to notes of the source that are not given here.
Columns and labels:
[1] = system: rats with autologous thrombus and thrombin-induced cerebral ischemic injury; assay: Ischemic brain injury induced by autologous thrombus and thrombin in rats (i.v., alone or with urokinase); assay type: in vivo, SD rats; settings: n = 10
Procedure: Experimental Methods: A model of cerebral ischemic injury in SD rats was prepared by embolizing the middle cerebral artery of rats with autologous thrombus and thrombin via the external carotid artery to the internal carotid artery and the rats were randomly divided into 5 groups according to behavioral scores, a sham group (only the external carotid artery was isolated); a model-control group (saline was given to both groups in equal volume); urokinase (5000 U/kg) group; compound 1-1 ([…]) group; with 20 animals in each group (10 for detecting the rate of cerebral infarction, and the other 10 for pathological testing). Each group was administered slowly in the tail vein (1 ml per minute) 2 h after modeling, and the decrease in blood flow was monitored after thrombin injection and 120 min after administration. Neurobehavioral scoring was performed on the rats after 24 h to determine the neurological function of the rats; 2,3,5-triphenyltetrazolium chloride (TTC) staining was used to determine the rate of cerebral infarction and cerebral water content, and hematoxylin-eosin (HE) staining was used to observe the pathological damage of the brain in rats administered with the drug 2 h after cerebral ischemia.

[2] = system: rats with myocardial ischemia-reperfusion injury; assay: Myocardial ischemia-reperfusion injury caused by coronary artery ligation in rats; assay type: in vivo; settings: x ± s, n = 8; for Pathological Score: myocardium
Procedure: Experimental Methods: A model of myocardial ischemia/reperfusion (MI/R) injury caused by coronary artery ligation was established in rats, and animals were grouped into high-dose (20 mg/kg), medium-dose (10 mg/kg), low-dose (5 mg/kg) of the test drug, clopidogrel (7.5 mg/kg), sham, and model groups. Equal volume of 0.5% CMC-Na was administered at 0.5 ml/100 g body weight in both sham and model groups. The drug was administered by gavage (i.g.) once a day for 5 consecutive days. Modeling was performed 30 min after the last administration, and after modeling, 8 successfully modeled rats were selected from each group for subsequent experiments. The sham group was placed a wire under the left anterior descending branch of the coronary artery according to the model preparation method without ligation, and the other groups were modeled according to the model preparation method. The effects of the test drugs on the cardiac infarction rate and the biochemical indexes of creatine kinase (CK), lactate dehydrogenase (LDH), malondialdehyde (MDA), and superoxide dismutase (SOD) in plasma were detected, and TTC staining of the heart was performed to detect the effects of the test drugs on the area of myocardial infarction in MI/R rats.

[3] = system: mice injected with ellagic acid via the tail vein; assay: Effect on in vivo clotting time in mice (ellagic acid tail vein injection); settings: Mus musculus, iv, 100 mg/kg i.g. for 4 days, ellagic acid i.v. 1 h after last dose, vs model group, read-out: Clotting time prolongation (%)
Procedure: The control and model groups were gavaged with distilled water, and the positive clopidogrel group, and the test substance group were gavaged orally (i.g.) with drug solution in a volume of 0.1 mL/10 g for 4 consecutive days. 1 h after the last administration, all groups were injected with 0.15 mL/10 g of 0.3% ellagic acid solution via tail vein injection except for the blank group which was injected with physiological saline: 0.1 ml/10 g. After 5 min, glass capillaries were used for blood collection through the retro-orbital venous plexus, and the appearance time of coagulation filaments was recorded by glass capillaries at 10-second intervals.
Calculation equation for prolongation of clotting time:
Prolongation of clotting time (%)=[(mean value of clotting time in blank or administered group/mean value of clotting time in model group)−1]×100%

[4] = system: rats with focal cerebral ischemia (MCAO)/reperfusion; assay: Prophylactic administration, cerebral ischemia-reperfusion injury (MCAO/R) in rats; assay type: in vivo; settings: Mean ± SD, n = 8; for Cerebral infarction rate (%): 3 days before MCAO/R, 24 h after reperfusion; for behavioral score / cerebral water content (%): MCAO/R
Procedure: Experimental methods: SD rats were randomly divided into 6 groups, set as sham group, model control group, positive control drug ozagrel (6 mg/kg) group, and test drug compound 1-1 high (9 mg/kg), medium (3 mg/kg), and low (1 mg/kg) dose group. The administered groups were preadministered by tail vein injection, and the sham and model control groups were given an equal volume of saline, once a day for 3 consecutive days. Ten minutes after the last administration, the rat MCAO/R model was established, and reperfusion was performed 2 h after ischemia. 24 h after MCAO reperfusion, neurobehavioral scores were performed to determine the neurological function of rats; 2,3,5-triphenyltetrazolium chloride (TTC) staining method was used to determine the rate of cerebral infarction and cerebral water content in rats.

Question: For `CCOC(=O)CCNC(=O)CCNc1cc(=O)n(C)c(=O)n1C` [Compound 1-1], which Cerebral infarction rate ([1]; 9 mg/kg i.v., TTC staining, mean ± S.D.) is on record?
Answer: The Cerebral infarction rate was 14.99 ± 10.91.

Question: And the behavioral score ([1]; 9 mg/kg i.v., after 24 h, Mean ± SD)?
Answer: Its behavioral score is 1.70 ± 0.82.

Question: What about the “cerebral water content (%)” value ([1]; 9 mg/kg i.v., mean ± S.D.) of the same compound?
Answer: Its value is 80.32 ± 0.97 %.

Question: What about the “Percentage decrease two hours after administration (%)” value ([1]; cerebral blood flow, 9 mg/kg i.v. 2 h after modeling, Mean ± SD) of the same compound?
Answer: Its value is 29.24 ± 2.67 %.

Question: And the “Percentage decrease after thrombin injection (%)” value ([1]; cerebral blood flow, before administration, 9 mg/kg group, Mean ± SD)?
Answer: The value was 39.18 ± 4.75%.

Question: What about the “Pathology Score” value ([1]; cerebral ischemic areas, 9 mg/kg i.v., mean ± SD) of the same compound?
Answer: The value was 2.20 ± 1.01.

Question: What about the “Cardiac infarction rate (%)” value ([2]; 5 mg/kg i.g. once a day for 5 days) of the same compound?
Answer: Its value is 12.12 ± 4.45 %.

Question: And the “Cardiac infarction rate (%)” value ([2]; 10 mg/kg i.g. once a day for 5 days)?
Answer: The value was 10.99 ± 2.39 %.

Question: What about the “Cardiac infarction rate (%)” value ([2]; 20 mg/kg i.g. once a day for 5 days) of the same compound?
Answer: Its value is 7.27 ± 1.91**^ΔΔ %.

Question: And the “Pathological Score” value ([2]; 5 mg/kg i.g.)?
Answer: The value was 2.00 ± 0.53.

Question: What about the “Pathological Score” value ([2]; 10 mg/kg i.g.) of the same compound?
Answer: The value was 1.88 ± 0.83.

Question: What about the “Pathological Score” value ([2]; 20 mg/kg i.g.) of the same compound?
Answer: The value was 1.75 ± 0.71.

Question: What about the “CK (U/mL)” value ([2]; plasma, 5 mg/kg i.g.) of the same compound?
Answer: Its value is 0.33 ± 0.15 U/mL.

Question: And the “LDH (U/L)” value ([2]; plasma, 5 mg/kg i.g.)?
Answer: The value was 5406.70 ± 458.93*^ΔΔ U/L.

Question: What about the “MDA” value ([2]; plasma, 5 mg/kg i.g.) of the same compound?
Answer: The value was 13.23 ± 2.89 nmol/mL.

Question: And the “SOD (U/mL)” value ([2]; plasma, 5 mg/kg i.g.)?
Answer: Its value is 28.29 ± 1.24 U/mL.

Question: What about the “CK (U/mL)” value ([2]; plasma, 10 mg/kg i.g.) of the same compound?
Answer: The value was 0.27 ± 0.11 U/mL.

Question: What about the “LDH (U/L)” value ([2]; plasma, 10 mg/kg i.g.) of the same compound?
Answer: The value was 3732.06 ± 573.02**^ΔΔ U/L.

Question: What about the “MDA (nmol/mL)” value ([2]; plasma, 10 mg/kg i.g.) of the same compound?
Answer: The value was 5.47 ± 1.71**^ΔΔ nmol/mL.

Question: What about the “SOD (U/mL)” value ([2]; plasma, 10 mg/kg i.g.) of the same compound?
Answer: Its value is 23.99 ± 2.80 U/mL.

Question: And the “CK (U/mL)” value ([2]; plasma, 20 mg/kg i.g.)?
Answer: Its value is 0.08 ± 0.047 U/mL.

Question: And the “LDH (U/L)” value ([2]; plasma, 20 mg/kg i.g.)?
Answer: Its value is 4366.03 ± 782.76**^ΔΔ U/L.

Question: And the “MDA (nmol/mL)” value ([2]; plasma, 20 mg/kg i.g.)?
Answer: The value was 8.77 ± 2.19**^ΔΔ nmol/mL.

Question: What about the “SOD (U/mL)” value ([2]; plasma, 20 mg/kg i.g.) of the same compound?
Answer: The value was 41.02 ± 2.33 U/mL.

Question: And the change in vivo at 100 mg/kg [3]?
Answer: The change in vivo at 100 mg/kg was 43.3%.

Question: What about the “Cerebral infarction rate (%)” value ([4]; 1 mg/kg tail vein) of the same compound?
Answer: The value was 25.20 ± 9.71%.

Question: What about the behavioral score ([4]; 1 mg/kg tail vein) of the same compound?
Answer: Its behavioral score is 2.63 ± 0.74.

Question: What about the “cerebral water content (%)” value ([4]; 1 mg/kg tail vein) of the same compound?
Answer: The value was 81.81 ± 0.78%.

Question: And the “Cerebral infarction rate (%)” value ([4]; 3 mg/kg tail vein)?
Answer: Its value is 22.74 ± 9.12%.

Question: And the behavioral score ([4]; 3 mg/kg tail vein)?
Answer: Its behavioral score is 2.00 ± 0.76.

Question: And the “cerebral water content (%)” value ([4]; 3 mg/kg tail vein)?
Answer: Its value is 81.57 ± 0.87%.

Question: What about the “Cerebral infarction rate (%)” value ([4]; 9 mg/kg tail vein) of the same compound?
Answer: Its value is 17.22 ± 9.35 %.

Question: And the behavioral score ([4]; 9 mg/kg tail vein)?
Answer: Its behavioral score is 1.50 ± 0.53.

Question: And the “cerebral water content (%)” value ([4]; 9 mg/kg tail vein)?
Answer: Its value is 80.94 ± 0.92 %.

From patent publication US20250066310A1, “MULTI-SUBSTITUTED URACIL DERIVATIVE AND PREPARATION METHOD THEREFOR AND APPLICATION THEREOF” (HANGZHOU ADAMERCK PHARMLABS INC., priority 2021, published 2025)
